PMC10892984, “Novel Antineoplastic Inducers of Mitochondrial Apoptosis in Human Cancer Cells” (Molecules, 2024)

Experiments:
[1] = system: HOP-92; assay type: cell-based; conditions: HOP-92, non-small-cell lung cancer, mutant p53, 48 h
[2] = Storage stability of the solid substance (1H-NMR after storage); assay type: physicochemical; conditions: over six years at +0–4 °C in the refrigerator
Method: The specimen of compound 3, which was synthesized on Saturday, 27 May 2017, was investigated using proton NMR (Figure 13) on Wednesday, 23 August 2023, after over six years of storage at +0–4 °C in the refrigerator. The specimen was newly dried over CaCl2 in vacuo for 19 h. […]

[3] = system: EKVX; conditions: non-small-cell lung cancer, mutant p53, 48 h
[4] = system: HCC-2998; conditions: for TGI: HCC-2998, colon cancer, mutant p53, 48 h; for GI50 / CC50: Homo sapiens, HCC 2998, 48 h; for CC50: read-out: LC50
[5] = system: SN12C; conditions: for TGI: renal cancer, mutant p53, 48 h; for GI50 / CC50: Homo sapiens, 48 h; for CC50: read-out: LC50
[6] = system: BT-549; conditions: for TGI: BT-549, breast cancer, mutant p53, 48 h; for GI50 / CC50: Homo sapiens, BT-549, 48 h; for CC50: read-out: LC50
[7] = Cytotoxicity (CellTiter 96 AQueous One, MTS); assay type: cell-based; conditions: human; PBM cells
Method: (§1) The cytotoxicity and human immunodeficiency virus type 1 (HIV-1) strain LAI replication assays were performed in freshly explanted primary human peripheral blood mononuclear cells (PBM cells) according to published procedures. The assays were conducted at least in triplicate and treated statistically (if possible). HIV-1LAI (= HIV-1BRU = LAV-1) was assayed in primary human peripheral blood lymphocyte (PBL) cells in the presence of a drug being evaluated. The parameter for antiviral activity was a reduction in reverse transcriptase (RT) activity in the cell supernatant after Triton X–100-mediated lysis of released virions, as measured using [5α-^3H]dTTP (5α-tritiated thymidine 5′-triphosphate) incorporation into poly(rA)•poly(dT) directed by the primed RNA template poly(rA)•oligo(dT). […] Cytotoxicity on PBL and the other cells (CCRF−CEM, Vero) exerted by the test compounds was determined as described by Stuyver et al. by application of the CellTiter 96® AQueous One Solution Cell Proliferation Assay (Promega Corp., Madison, WI, USA). Briefly, the phenazine ethosulfate (PES)-coupled reduction of the tetrazolium salt 3-(4,5-dimethylthiazol-2-yl)-5-(3-carboxymethoxyphenyl)-2-(4-sulfophenyl)-2H-tetrazolium (MTS) to a purple, water-soluble formazan by living, undamaged cells was measured.

[8] = Cytotoxicity (CellTiter 96 AQueous One, MTS); assay type: cell-based, human; conditions: human; CCRF−CEM cells
Method: (§2) The cytotoxicity and human immunodeficiency virus type 1 (HIV-1) strain LAI replication assays were performed in freshly explanted primary human peripheral blood mononuclear cells (PBM cells) according to published procedures. The assays were conducted at least in triplicate and treated statistically (if possible). HIV-1LAI (= HIV-1BRU = LAV-1) was assayed in primary human peripheral blood lymphocyte (PBL) cells in the presence of a drug being evaluated. The parameter for antiviral activity was a reduction in reverse transcriptase (RT) activity in the cell supernatant after Triton X–100-mediated lysis of released virions, as measured using [5α-^3H]dTTP (5α-tritiated thymidine 5′-triphosphate) incorporation into poly(rA)•poly(dT) directed by the primed RNA template poly(rA)•oligo(dT). […] The detailed assay methodology was reported by Schinazi et al. as based on an older assay system of Spira et al.. The experiments were conducted in triplicate and treated statistically using regression curve analysis (r^2 coefficient of determination). The RT inhibitor AZT (zidovudine, 3′-azido-3′-deoxythymidine; RETROVIR™) served as a positive control. Cytotoxicity on PBL and the other cells (CCRF−CEM, Vero) exerted by the test compounds was determined as described by Stuyver et al. by application of the CellTiter 96® AQueous One Solution Cell Proliferation Assay (Promega Corp., Madison, WI, USA). Briefly, the phenazine ethosulfate (PES)-coupled reduction of the tetrazolium salt 3-(4,5-dimethylthiazol-2-yl)-5-(3-carboxymethoxyphenyl)-2-(4-sulfophenyl)-2H-tetrazolium (MTS) to a purple, water-soluble formazan by living, undamaged cells was measured.

[9] = system: CCRF−CEM cells; assay: Cytotoxicity (CellTiter 96 AQueous One, MTS); assay type: cell-based, human; conditions: Homo sapiens, 1.0 µM, read-out: CCRF–CEM growth inhibition at fixed 1.0 µM concentration
Method: as §2

[10] = Cytotoxicity (CellTiter 96 AQueous One, MTS); assay type: cell-based, African green monkey (grivet) Chlorocebus aethiops; conditions: African green monkey (Chlorocebus aethiops), Vero cells
Method: as §1

[11] = system: HL-60 (TB)
[12] = system: K-562; conditions: for GI50 / CC50: Homo sapiens, K562, 48 h; for CC50: read-out: LC50; for TGI: K-562, leukemia, mutant p53, 48 h
[13] = system: SR; conditions: for GI50 / CC50: Homo sapiens, 48 h; for CC50: read-out: LC50; for TGI: leukemia, wild-type p53, 48 h
[14] = system: U251; conditions: for GI50 / CC50: Homo sapiens, U-251, 48 h; for CC50: read-out: LC50; for TGI: U251, CNS cancer (brain tumor), mutant p53, 48 h
[15] = system: EKVX; assay: cells; conditions: Homo sapiens, 48 h, read-out: LC50

Row | SMILES | TGI [1] [nM] | TGI [3] [nM] | TGI [4] [nM] | TGI [5] [nM] | TGI [6] [nM] | GI50 [12] [nM] | CC50 [12] [nM] | TGI [12] [nM] | GI50 [13] [nM] | CC50 [13] [nM] | TGI [13] [nM] | GI50 [4] [nM] | CC50 [4] [nM] | GI50 [14] [nM] | CC50 [14] [nM] | TGI [14] [nM] | GI50 [5] [nM] | CC50 [5] [nM] | GI50 [6] [nM] | CC50 [6] [nM] | further results
1 | COc1cc2c(c(OC)c1OC)-c1ccc(NNC(=S)N(Cc3cccc(C[N+](Cc4cccc(CNC56CC7CC(CC(C7)C5)C6)c4)(Cc4cccc(CNC56CC7CC(CC(C7)C5)C6)c4)Cc4cccc(CN(C(=S)NNc5ccc6c(cc5=O)C(NC(C)=O)CCc5cc(OC)c(OC)c(OC)c5-6)C56CC7CC(CC(C7)C5)C6)c4)c3)C34CC5CC(CC(C5)C3)C4)c(=O)cc1C(NC(C)=O)CC2 [Compound 3, [(bis{3-[(tricyclo[3.3.1.1^3,7]decan-1-ylamino)methyl]benzyl}ammonio)bis(methanediylbenzene-3,1-diylmethanediyl)]di-2-[(aS,7S)-7-(acetylamino)-1,2,3-trimethoxy-9-oxo-5,6,7,9-tetrahydrobenzo[a]heptalen-10-yl]-N-(tricyclo[3.3.1.1^3,7]decan-1-yl)hydrazinecarbothioamide chloride pentahydrate] | 4080 | 8460 | 1470 | 6900 | 5890 | – | – | – | – | – | – | – | – | – | – | – | – | – | – | – | stability on storage (1H-NMR) [2]: very pure even after six years storage
2 | c1cc(CNC23CC4CC(CC(C4)C2)C3)cc(C[N+](Cc2cccc(CNC34CC5CC(CC(C5)C3)C4)c2)(Cc2cccc(CNC34CC5CC(CC(C5)C3)C4)c2)Cc2cccc(CNC34CC5CC(CC(C5)C3)C4)c2)c1 (centres unmarked) [Compound 1, tetrakis{3-[(tricyclo[3.3.1.1^3,7]decan-1-ammonio)methyl]benzyl}ammonium pentachloride] | 3060 | – | 5310 | 4430 | 2770 | 1460 | > 50000 | 36200 | 1490 | > 50000 | > 50000 | 1220 | 22600 | 1120 | 8790 | 2690 | 1410 | 15800 | 1020 | 10200 | GI50 ([1]; Homo sapiens): 1140 nM; CC50 ([1]; Homo sapiens, read-out: LC50 (the source's name)): 12600 nM; CC50 [7]: 2200 nM; CC50 [8]: < 1000 nM; inhibition at 1 µM [9]: 60%; CC50 [10]: 1800 nM; TGI ([11]; HL-60 (TB), leukemia, mutant p53, 48 h): 2710 nM; GI50 ([11]; Homo sapiens, HL-60, 48 h): 870 nM
3 | COc1cc2c(c(OC)c1OC)-c1ccc(NNC(N)=S)c(=O)cc1C(NC(C)=O)CC2 [Compound 2, N-[(aS,7S)-10-(2-carbamothioylhydrazinyl)-1,2,3-trimethoxy-9-oxo-5,6,7,9-tetrahydrobenzo[a]heptalen-7-yl]acetamide monohydrate × ⅔ (ethyl acetate)] | – | > 100000 | 674 | > 100000 | 924 | 362 | > 100000 | > 100000 | 279 | > 100000 | > 100000 | 272 | > 100000 | 479 | > 100000 | > 100000 | 828 | > 100000 | 294 | > 100000 | CC50 [15]: > 100000 nM
